Consider 18 molecules from patent publication US8450313B2, “2,3-diaryl- or heteroaryl-substituted 1,1,1-trifluoro-2-hydroxypropyl compounds” (Hoffmann-La Roche Inc., priority 2009, dated 2013).

In the assay the target is T1, full length human recombinant glucocorticoid receptor (Homo sapiens, UniProt P04150).
T1 construct: It contains some partially purified full length human recombinant glucocorticoid receptor; purchased Panvera/Invitrogen PV4302
T1 sequence (P04150 1-777): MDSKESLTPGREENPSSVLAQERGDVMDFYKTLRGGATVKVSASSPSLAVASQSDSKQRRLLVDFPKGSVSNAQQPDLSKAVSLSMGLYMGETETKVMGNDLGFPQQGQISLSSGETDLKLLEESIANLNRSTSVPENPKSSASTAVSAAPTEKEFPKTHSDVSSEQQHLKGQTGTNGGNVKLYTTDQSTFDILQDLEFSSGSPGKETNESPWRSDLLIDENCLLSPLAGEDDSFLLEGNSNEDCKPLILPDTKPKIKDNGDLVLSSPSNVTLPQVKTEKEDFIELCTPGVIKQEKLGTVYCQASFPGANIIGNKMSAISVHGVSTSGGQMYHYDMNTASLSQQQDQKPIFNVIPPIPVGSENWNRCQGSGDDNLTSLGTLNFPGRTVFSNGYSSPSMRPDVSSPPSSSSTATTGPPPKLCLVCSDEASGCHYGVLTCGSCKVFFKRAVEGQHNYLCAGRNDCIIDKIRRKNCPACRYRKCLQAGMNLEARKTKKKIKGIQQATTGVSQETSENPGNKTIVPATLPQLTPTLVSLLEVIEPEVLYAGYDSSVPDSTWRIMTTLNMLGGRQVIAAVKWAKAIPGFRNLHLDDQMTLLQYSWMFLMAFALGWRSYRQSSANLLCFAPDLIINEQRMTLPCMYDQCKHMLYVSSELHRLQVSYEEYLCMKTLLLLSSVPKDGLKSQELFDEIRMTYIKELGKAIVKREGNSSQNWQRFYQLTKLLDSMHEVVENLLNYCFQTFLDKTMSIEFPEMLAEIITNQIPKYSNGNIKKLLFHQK
Nature of the assay: Glucocorticoid Receptor Binding Assay (Glucocorticoid Receptor Competitor Assay far red kit, fluorescence polarization). The conditions noted are these: competition with fluorescent GR ligand Fluormone GS Far Red, 3 hours at 22° C., pH 7.4; Ki calculated from IC50 by Cheng-Prusoff. As for the experimental part:
Glucocorticoid Receptor Binding Assay
The ability of the substances to bind to the glucocorticoid receptor was determined with the help of a commercial Glucocorticoid Receptor Competitor Assay far red kit provided by Panvera/Invitrogen (PV4302). This kit is used as provided by the supplier. It contains some partially purified full length human recombinant glucocorticoid receptor, a coactivator related GR stabilizing peptide, a tight-binding fluorescent GR ligand Fluormone™ GS Far Red as labeled tracer and a screening buffer. All reagents are prepared and the assay is run according to the recommendations of the kit manufacturer.
Briefly, the GR stabilizing peptide and the human recombinant glucocorticoid receptor are both diluted with the screening buffer (pH 7.4) and are gently mixed (no vortexing) just before the assay and kept on ice until use. The fluorescent-labeled ligand is also diluted with the screening buffer just before the assay and kept on ice until use. The substances to test are pre-diluted in pure DMSO then some water is added to get an intermediate 4.2% DMSO stock solution. Ten microliter of the intermediate stock solution is gently mixed with 5 μA of diluted fluorescent-labeled ligand and 5 μl of diluted human recombinant glucocorticoid receptor in a 384-well plate (low volume, ultraclear, glass plate from Greiner ref 788896). The plate is centrifuged, sealed and incubated for 3 hours at 22° C. in the dark. The polarized fluorescence is measured with a Zeiss-HTS reader or any equivalent equipment (610-660 nm).
All compounds were tested to determine IC50 in a serial dilution experiment. The concentration at which 50% inhibition of the fluorescent GR ligand Fluormone™ GS Far Red is obtained (the IC50) is determined after fitting with a sigmoidal dose-response model of a plot of the logarithm of the concentration versus percent inhibition measured for the different concentrations. Ki's were calculated from IC50 based on Cheng-Prusoff equation (Cheng, Y, Prusoff, W H (1973) Biochem Pharmacol 22, 3099-3108): Ki=IC50/[1+D/Kd] wherein D is the concentration of the fluorescent ligand and Kd is the binding constant for the fluorescent ligand binding to the receptor under the conditions used in the competition experiment.

Consider `Cc1cc([C@@](O)([C@@H](C)c2ccc(Oc3ccc(C(=O)O)c(F)c3)cc2Cl)C(F)(F)F)cc(C)c1C#N` (stereo in doubt) [Example 142, 4-{3-Chloro-4-[2-(4-cyano-3,5-dimethyl-phenyl)-3,3,3-trifluoro-2-hydroxy-1-methyl-propyl]-phenoxy}-2-fluoro-benzoic acid], for which the Ki was 2.1 nM.
To `C[C@@H](c1ccc(-c2ccc(CCC(=O)O)cc2)cc1Cl)[C@](O)(c1ccc2c(c1)N(C)C(=O)CO2)C(F)(F)F` (relative stereo) [Example 29, 3-{3′-Chloro-4′-[3,3,3-trifluoro-2-hydroxy-1-methyl-2-(4-methyl-3-oxo-3,4-dihydro-2H-benzo[1,4]oxazin-6-yl)-propyl]-biphenyl-4-yl}-propionic acid] belongs 7.5 nM.
To `C[C@H](c1ccc(Oc2cc(Cl)c(C(=O)O)cn2)cc1Cl)[C@@](O)(c1ccc2c(c1)n(C)c(=O)n2C)C(F)(F)F` (stereo in doubt) [Example 109, 4-Chloro-6-{3-chloro-4-[2-(1,3-dimethyl-2-oxo-2,3-dihydro-1H-benzoimidazol-5-yl)-3,3,3-trifluoro-2-hydroxy-1-methyl-propyl]-phenoxy}-nicotinic acid] belongs 1.1 nM.
Turning to `C[C@H](c1ccc(-c2ccc(C(=O)O)c(F)c2)cc1Cl)[C@@](O)(c1ccc(C#N)cc1)C(F)(F)F` (relative stereo) [Example 152, 3′-Chloro-4′-[2-(4-cyano-phenyl)-3,3,3-trifluoro-2-hydroxy-1-methyl-propyl]-3-fluoro-biphenyl-4-carboxylic acid], the Ki was 46.2 nM.
To `COC(=O)c1ccc(-c2ccc([C@@H](C)[C@@](O)(c3ccc4c(c3)NC(=O)CO4)C(F)(F)F)c(Cl)c2)cc1F` (relative stereo) [Example 71, 3′-Chloro-3-fluoro-4′-[3,3,3-trifluoro-2-hydroxy-1-methyl-2-(3-oxo-3,4-dihydro-2H-benzo[1,4]oxazin-6-yl)-propyl]-biphenyl-4-carboxylic acid methyl ester] belongs 28.1 nM.
To `C=CCN1C(=O)COc2ccc([C@](O)([C@H](C)c3ccc(-c4ccc(C(=O)OC)c(F)c4)cc3Cl)C(F)(F)F)cc21` (stereo in doubt) [Example 70, 4′-[2-(4-Allyl-3-oxo-3,4-dihydro-2H-benzo[1,4]oxazin-6-yl)-3,3,3-trifluoro-2-hydroxy-1-methyl-propyl]-3′-chloro-3-fluoro-biphenyl-4-carboxylic acid methyl ester] belongs 278 nM.
The value for `C[C@@H](c1ccc(Oc2ncc(C(=O)O)cc2Cl)cc1Cl)[C@](O)(c1ccc2c(c1)N(C)C(=O)CO2)C(F)(F)F` [Example 224, 5-Chloro-6-{3-chloro-4-[(1S,2S)-3,3,3-trifluoro-2-hydroxy-1-methyl-2-(4-methyl-3-oxo-3,4-dihydro-2H-benzo[1,4]oxazin-6-yl)-propyl]-phenoxy}-nicotinic acid] was 0.8 nM; that for `C[C@H](c1ccc(-c2ccc(C(=O)O)c(F)c2)cc1Cl)[C@@](O)(c1ccc2c(c1)oc(=O)n2C)C(F)(F)F` (relative stereo) [Example 134, 3′-Chloro-3-fluoro-4′-[3,3,3-trifluoro-2-hydroxy-1-methyl-2-(3-methyl-2-oxo-2,3-dihydro-benzooxazol-6-yl)-propyl]-biphenyl-4-carboxylic acid] was 109 nM; that for `COC(=O)c1ccc(Oc2ccc([C@H](C)[C@](O)(c3cc(C)c(C#N)c(C)c3)C(F)(F)F)c(Cl)c2)cc1F` (relative stereo) [Example 141, 4-{3-Chloro-4-[2-(4-cyano-3,5-dimethyl-phenyl)-3,3,3-trifluoro-2-hydroxy-1-methyl-propyl]-phenoxy}-2-fluoro-benzoic acid methyl ester] was 1.8 nM.
With `C[C@H](c1ccc(-c2cncnc2)cc1Cl)[C@@](O)(c1ccc2oc(=O)n(C)c2c1)C(F)(F)F` (relative stereo) [Example 194, 5-[2-(2-Chloro-4-pyrimidin-5-yl-phenyl)-1-hydroxy-1-trifluoromethyl-propyl]-3-methyl-3H-benzooxazol-2-one], the Ki was 0.7 nM.
To `C[C@@H](c1ccc(-c2ccc(F)c(C(=O)O)c2)cc1Cl)[C@](O)(c1ccc2c(c1)N(C)S(=O)(=O)N2C)C(F)(F)F` (relative stereo) [Example 162, 3′Chloro-4′-[2-(1,3-dimethyl-2,2-dioxo-2,3-dihydro-1H-2λ6-benzo[1,2,5]thiadiazol-5-yl)-3,3,3-trifluoro-2-hydroxy-1-methyl-propyl]-4-fluoro-biphenyl-3-carboxylic acid] belongs 10.8 nM.
The value for `C[C@H](c1ccc(-c2ccc(C(=O)O)c(F)c2)cc1Cl)[C@@](O)(c1ccc2c(c1)N(C)C(=O)C(C)(C)O2)C(F)(F)F` (relative stereo) [Example 168, 3′-Chloro-3-fluoro-4′-[3,3,3-trifluoro-2-hydroxy-1-methyl-2-(2,2,4-trimethyl-3-oxo-3,4-dihydro-2H-benzo[1,4]oxazin-6-yl)-propyl]-biphenyl-4-carboxylic acid] was 609 nM; that for `C[C@H](c1ccc(Oc2ccc(C(=O)O)c(Cl)c2)cc1Cl)[C@@](O)(c1ccc2c(c1)N(C)C(=O)CO2)C(F)(F)F` (racemic) [Example 59, 2-Chloro-4-{3-chloro-4-[3,3,3-trifluoro-2-hydroxy-1-methyl-2-(4-methyl-3-oxo-3,4-dihydro-2H-benzo[1,4]oxazin-6-yl)-propyl]-phenoxy}-benzoic acid] was 1 nM.
For `C[C@H](c1ccc(Oc2ccc(C(=O)O)cn2)cc1Cl)[C@@](O)(c1ccc2oc(=O)n(C)c2c1)C(F)(F)F` (stereo in doubt) [Example 181, 6-{3-Chloro-4-[3,3,3-trifluoro-2-hydroxy-1-methyl-2-(3-methyl-2-oxo-2,3-dihydro-benzooxazol-5-yl)-propyl]-phenoxy}-nicotinic acid], the Ki is 0.5 nM.
The value for `COC(=O)c1ccc(-c2ccc([C@@H](C)[C@@](O)(c3cccc4c3OCC(=O)N4C)C(F)(F)F)c(Cl)c2)cc1F` (relative stereo) [Example 53, 3′-Chloro-3-fluoro-4′-[3,3,3-trifluoro-2-hydroxy-1-methyl-2-(4-methyl-3-oxo-3,4-dihydro-2H-benzo[1,4]oxazin-8-yl)-propyl]-biphenyl-4-carboxylic acid methyl ester] was 66.1 nM.
The value for `CCOC(=O)COc1cc(-c2ccc([C@H](C)[C@](O)(c3cc(F)c4c(c3)N(C)C(=O)CO4)C(F)(F)F)c(Cl)c2)ccc1F` (relative stereo) [Example 47, {3′-Chloro-4-fluoro-4′-[3,3,3-trifluoro-2-(8-fluoro-4-methyl-3-oxo-3,4-dihydro-2H-benzo[1,4]oxazin-6-yl)-2-hydroxy-1-methyl-propyl]-biphenyl-3-yloxy}-acetic acid ethyl ester] was 2 nM; that for `C[C@H](c1ccc(Oc2ccc(C(=O)O)c(Cl)n2)cc1Cl)[C@@](O)(c1ccc2c(c1)N(C)C(=O)CO2)C(F)(F)F` (stereo in doubt) [Example 209, 2-Chloro-6-{3-chloro-4-[3,3,3-trifluoro-2-hydroxy-1-methyl-2-(4-methyl-3-oxo-3,4-dihydro-2H-benzo[1,4]oxazin-6-yl)-propyl]-phenoxy}-nicotinic acid] was 0.8 nM.
The value for `C[C@H](c1ccc(Oc2ccc(F)c(C(=O)O)c2)cc1Cl)[C@@](O)(c1ccc2c(c1)OCC(=O)N2C)C(F)(F)F` (relative stereo) [Example 167, 5-{3-Chloro-4-[3,3,3-trifluoro-2-hydroxy-1-methyl-2-(4-methyl-3-oxo-3,4-dihydro-2H-benzo[1,4]oxazin-7-yl)-propyl]phenoxy}-2-fluoro-benzoic acid] was 3.1 nM.
